The source of these data is patent US20120226031A1, “PALMARUMYCIN BASED INHIBITORS OF THIOREDOXIN AND METHODS OF USING SAME” (ARIZONA BOARD OF REGENTS, ACTING ON BEHALF OF THE …, priority 2005, published 2012).

Data set [1] in a line: Stability in fresh mouse plasma at room temperature. Type of data set: in vitro ADME. As for the experimental part:
(§1) Two metabolite peaks could be seen at 5 minutes, but were undetectable by 30 minutes.

The target of data set [2] is T1, human thioredoxin reductase (Homo sapiens, UniProt Q16881).
T1 construct: (placenta); from tissue; host or cells: human placenta
T1 sequence (Q16881 151-649 limits assumed): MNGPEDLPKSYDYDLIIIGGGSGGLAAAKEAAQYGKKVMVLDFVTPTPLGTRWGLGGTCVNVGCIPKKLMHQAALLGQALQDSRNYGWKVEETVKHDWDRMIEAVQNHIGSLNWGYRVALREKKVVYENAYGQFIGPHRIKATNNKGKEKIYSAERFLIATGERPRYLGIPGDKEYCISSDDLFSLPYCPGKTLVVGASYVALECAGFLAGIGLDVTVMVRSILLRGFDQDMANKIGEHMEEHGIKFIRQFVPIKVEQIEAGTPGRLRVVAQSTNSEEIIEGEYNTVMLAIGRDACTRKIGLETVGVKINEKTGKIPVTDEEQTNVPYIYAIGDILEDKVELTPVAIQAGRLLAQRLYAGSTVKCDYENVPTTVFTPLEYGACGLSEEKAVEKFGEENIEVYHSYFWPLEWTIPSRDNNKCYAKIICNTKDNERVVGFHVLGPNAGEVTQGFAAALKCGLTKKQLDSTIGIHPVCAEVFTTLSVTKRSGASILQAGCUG
Nature of the data set: Inhibition of purified human thioredoxin reductase (TrxR/TR). Type of data set: biochemical.

Data set [3] has as its system MCF-7 human breast cancer cells. The experiment in a line: MCF-7 breast cancer cell growth inhibition. It counts as cell-based.
Experimental: MCF-7 human breast cancer cells were grown in medium containing 1 μM selenium (Se) for 7 days which increased cellular thioredoxin reductase activity by about 5 fold as previously reported.
The nature of another data set: Aqueous solubility. Type of data set: physicochemical.
Data set [4] is described as follows: Plasma levels in mice after i.v. administration. It counts as in vivo, mouse. On the set-up: dose or concentration left out as unconfirmed. The settings on record: after PX-916 i.v. to mice. Here is the method:
as §1

A short description of data set [5]: pH dependent stability in water / 0.1M sodium phosphate buffer. Type of data set: physicochemical. Particulars: for half-life at 100 g/ml / T1/2: 100 g/ml in 0.1M sodium phosphate buffer. As for the experimental part:
PX-916 was stable as a stock solution in ethanol at room temperature with a half life of >5 days. […] Therefore, for in vitro studies PX-916 was used as a stock solution in ethanol, and for in vivo studies made fresh in pH 4.0 buffer vehicle.
Further palmarumycin analogs were synthesized and tested. The following analogs were synthesized: eee269-II, eee86-III, eee263-II and eee273-II. The stability of the analogs was measured in various solutions.

A short description of data set [6]: Stability of prodrugs in mouse plasma (formation of parent compound). Type of data set: in vitro ADME. Particulars: first 20 min of incubation at 1 mg/ml and 33° C. As for the experimental part: (§2) The stability of the analogs and formation of the parent compound in plasma was measured and is presented in FIG. 7, FIG. 8 and Table 6 (measured by the formation of parent compound over the first 20 min of incubation at 1 mg/ml and at 33° C.), below.

Data set [7] can be described thus: Stability of prodrugs in human plasma (formation of parent compound). It counts as in vitro ADME. The settings on record: first 20 min of incubation at 1 mg/ml and 33° C. As for the experimental part: as §2
Data set [8] in a line: Stability of prodrugs in ES1e mouse plasma (formation of parent compound). It counts as in vitro ADME. The settings on record: first 20 min of incubation at 1 mg/ml and 33° C. Here is the method: as §2
Where [9] appears, read: Table 1, read-out: TrxR inhibitory activity IC50.
Where [10] appears, read: Table 2, read-out: Inhibition of human thioredoxin reductase IC50.
[11] abbreviates: Homo sapiens, MCF7, Table 1, read-out: MCF-7 growth inhibition IC50.

Read-outs that look alike come from different tables or passages of the source.

By half-life is commonly meant the time needed for the level to fall by half in the phase considered. The term solubility denotes the dissolved amount per volume that the medium holds. For `O=C1C=CC2(Oc3cccc4c(O)ccc(c34)O2)c2cccc(O)c21` (stereo not shown) [PX-960], in [1], the “half life in mouse plasma” value is recorded as “about 31 minutes”. This compound also registered a half-life in data set [1] of about 0.517 h. The IC50 in [2] (setting [9]) was 200 nM; in data set [2] (setting [10]) it was 270 nM; in data set [3] (Homo sapiens, MCF7, read-out: Inhibition of MCF-7 breast cancer cell growth IC50) it was 4100 nM; in data set [3] (setting [11]), 2600 nM. Moreover, in “Aqueous solubility” (water, read-out: water solubility), the solubility was under 100 µg/mL. The “detection of PX-960 in plasma” value in [4] (at 5 minutes) is listed as “only a very small peak”; in data set [4] (at 30 minutes), “No PX-960 was detected”.
With `CC(C)(NNC1CC(=O)c2c(O)cccc2C12Oc1cccc3c(O)ccc(c13)O2)C(N)=O` (stereo not shown) [eee269-II], the results for the half-life at 100 g/ml in data set [5] (pH 4.0) and in data set [5] (pH 7.0) were over 100 h and 0.2 h, respectively. Besides, the “stability in aqueous solutions” value in data set [5] (in words) is recorded as “unstable in aqueous solutions”.
Turning to `NC(Cc1ccccc1)C(=O)Oc1ccc2c3c(cccc13)OC1(C=CC(=O)c3c(O)cccc31)O2` (stereo not shown) [eee273-II], the half-life at 100 g/ml in data set [5] (pH 4.0) and in data set [5] (pH 7.0) was over 100 h throughout. The “solubility at 1 mg/ml” value in “Aqueous solubility” (1 mg/ml, plasma stability study) is “very insoluble”.
As for `O=C1C=CC2(Oc3cccc4c(OCCN5CCOCC5)ccc(c34)O2)c2cccc(O)c21` (stereo not shown) [Compound 14], the IC50 in data set [2] (setting [9]) turned out to be 4200 nM; in [3] (setting [11]) it was 2600 nM.
The matching figures for `O=C1C=CC2(Oc3cccc4c(OCCN5CCOCC5)ccc(c34)O2)c2ccccc21` (stereo not shown) [Compound 13]: 1600 nM and 1200 nM.
`O=C1C=CC2(Oc3cccc4c(OC5OC(CO)C(O)C(O)C5O)ccc(c34)O2)c2cccc(O)c21` (stereo not shown) [eee86-III]: the half-life at 100 g/ml in [5] (pH 4.0) and in data set [5] (pH 7.0) was over 100 h in each case.
Turning to `COc1ccc2c3c(cccc13)OC1(C=CC(=O)c3ccccc31)O2` (stereo not shown) [PX-911], the IC50 stood at 3200 nM in data set [2] (setting [10]) and 9200 nM in data set [3] (Homo sapiens, MCF7, Table 2, read-out: Inhibition of MCF-7 breast cancer cell growth IC50).
With `CC(C)(N)C(=O)Oc1ccc2c3c(cccc13)OC1(C=CC(=O)c3c(O)cccc31)O2` (stereo not shown) [eee263-II], the T1/2 in data set [5] (pH 4.0) and in data set [5] (pH 7.0) was over 100 h throughout. In data set [6], the “formation of parent compound, Mouse Plasma” value is recorded as 42 area/20 min. For the same compound, the “formation of parent compound, Human plasma” value in data set [7] was found to be 81 area/20 min. In addition, the “formation of parent compound, ES1e mouse plasma” value in [8] was found to be 82 area/20 min.
For `O=C1C=CC2(Oc3cccc4cccc(c34)O2)c2cccc(O)c21` [palmarumycin C1, palmarumycin CP1, reference compound], the IC50 in data set [2] (setting [10]) is 350 nM; in [3] (Table 2, read-out: Inhibition of MCF-7 breast cancer cell growth IC50), 1000 nM; in [3] (text b151, summary of Table 2, read-out: concentration of cell growth inhibition of MCF-7 cells) it was 1000 to 3000 nM. Besides, in “Aqueous solubility” (in words), the “solubility in aqueous media” value was “almost insoluble in aqueous media”.
For `CC(C)C(N)C(=O)Oc1ccc2c3c(cccc13)OC1(C=CC(=O)c3ccccc31)O2` (stereo not shown) [Compound 11], the IC50 is 620 nM in data set [2] (setting [9]) and 2200 nM in [3] (setting [11]).
